Read-outs that look alike come from different tables or passages of the source.
Tests used:
[1] = system: P. falciparum 3D7; design: method as in ChEMBL-NTD; settings: ref ChEMBL-NTD, cited from earlier work
[2] = system: P. falciparum 3D7; assay: DAPI stain fluorescent high content imaging assay, P. falciparum 3D7 (confirmatory screen, Avery); settings: Plasmodium falciparum; for EC50: 3D7, read-out: EC50_nM; for inhibition of growth at 5 µM: 3D7, read-out: percent_inh @ 5 uM
[3] = original screening data, source (GSK, GNF, StJude), several values separated by ';' in order of sources
[4] = values follow the order of the source (GNF; GSK; StJude)

Cc1cc(NC(=O)C2c3ccccc3C(=O)N(CC(C)C)C2c2cccs2)no1 (centres unmarked) [MMV006429]
EC50 ([1]; source GNF (GNF-Pf id)): 0.0856 µM | EC50 [2]: 0.0328 µM | inhibition of growth at 5 µM [2]: 100%

COc1ccc(C2=C(c3ccc(OC)cc3)C3(c4ccccc4)C(=O)C2(c2ccccc2)C2C(=O)N(c4ccc(C)cc4)C(=O)C23)cc1 (centres unmarked) [MMV666101]
EC50 ([1]; source GNF (GNF-Pf id)): 12.5 µM | EC50 [2]: 0.148 µM | inhibition of growth at 5 µM [2]: 98%

COc1ccc(C2N(C)c3ccccc3N2C)cc1 [MMV666075]
EC50 ([1]; source StJude): 15 µM | inhibition of growth at 5 µM [2]: 62%

CCCN(CCC)CCCNC(=O)c1cc2c(-c3ccc(OC)c(OC)c3)nn(C)c2s1 [MMV000561]
EC50 [1, 3]: 4.04 µM | EC50 [2]: 1.43 µM | inhibition of growth at 5 µM [2]: 98%

O=C(NC1CCN(Cc2ccccc2)CC1)c1cc(C(=O)NC2CCN(Cc3ccccc3)CC2)cc(C(=O)NC2CCN(Cc3ccccc3)CC2)c1 [MMV019881]
EC50 [1, 4]: 1.04 µM | EC50 [2]: 0.646 µM | inhibition of growth at 5 µM [2]: 98%

O=C(Nc1ccc(CN2CCOCC2)cc1)c1ccc(-c2ccc(Br)cc2)o1 [MMV665901]
EC50 ([1]; source GSK): 1.12 µM | EC50 [2]: 1.36 µM | inhibition of growth at 5 µM [2]: 96%

O=C(NC1CCN(Cc2ccccc2)CC1)c1cc(-c2cccnc2)nc2ccc(Cl)cc12 [MMV020490]
EC50 [1, 3]: 0.759 µM | EC50 [2]: 1.01 µM | inhibition of growth at 5 µM [2]: 91%

Cc1ccc(S(=O)(=O)c2c(COC(=O)c3cccc(C)c3)c(-c3ccccc3)nn2C)cc1 [MMV665936]
EC50 ([1]; source GNF (GNF-Pf ids)): 8.4 µM | inhibition of growth at 5 µM [2]: 95%

O=C(NC1CCN(Cc2ccccc2)CC1)c1cc(-c2ccncc2)nc2ccc(Cl)cc12 [MMV020275]
EC50 [1, 3]: 0.92 µM | EC50 [2]: 1.02 µM | inhibition of growth at 5 µM [2]: 92%

OC1CCCCC1C1(NC(=S)Nc2ccccc2)CCCCC1 (centres unmarked) [MMV665980]
EC50 ([1]; source GNF (GNF-Pf ids)): 0.211 µM | inhibition of growth at 5 µM [2]: 59%

CN(C)c1ccc(-c2nc3cc(N)ccc3[nH]2)cc1 [MMV666102]
EC50 ([1]; source GSK): 0.239 µM | inhibition of growth at 5 µM [2]: 64%

O=C(Nc1ccc(-c2nc3ccccc3[nH]2)cc1)c1ccc(Cl)c(Cl)c1 [MMV665840]
EC50 [1, 4]: 0.523 µM | EC50 [2]: 0.838 µM | inhibition of growth at 5 µM [2]: 97%

COc1ccc2c(c1)OC(O)(C(F)(F)C(F)(F)F)CC2=O (centres unmarked) [MMV007839]
EC50 ([1]; source GNF (GNF-Pf id)): 0.442 µM | EC50 [2]: 0.283 µM

CCCCc1ccc(NS(=O)(=O)c2cc3c4c(c2)CCN4C(=O)CC3)cc1 [MMV001255]
EC50 ([1]; source StJude): 15 µM | EC50 [2]: 0.538 µM | inhibition of growth at 5 µM [2]: 96%

CCCCNc1nc(NC(C)(C)C)nc(NC(C)(C)C)n1 [MMV665864]
EC50 [1, 4]: 2.16 µM | EC50 [2]: 0.706 µM | inhibition of growth at 5 µM [2]: 98%

CCOC(=O)c1cn(CC)c2cc(N(C)CCc3ccc(OC)c(OC)c3)c(F)cc2c1=O [MMV665977]
EC50 ([1]; source GNF (GNF-Pf id)): 0.103 µM | EC50 ([1]; source GSK (TCMDC id)): 0.425 µM | EC50 [2]: 0.205 µM | inhibition of growth at 5 µM [2]: 99%

CC(O)(c1ccc(Cl)cc1)C(CN1CCCCC1)c1ccccc1 (centres unmarked) [MMV000620]
EC50 ([1]; source StJude): 0.916 µM | inhibition of growth at 5 µM [2]: 94%

CCCc1c(CC)c(=N)c2ccccc2n1C [MMV008416]
EC50 ([1]; source GNF (GNF-Pf id)): 0.762 µM | EC50 [2]: 0.242 µM | inhibition of growth at 5 µM [2]: 69%

Oc1ccc(Br)cc1CN1CCN(Cc2ccc(Cl)cc2)CC1 [MMV665809]
EC50 [1, 4]: 1.48 µM | inhibition of growth at 5 µM [2]: 97%

COc1ccccc1CNC(=O)C1c2ccccc2C(=O)N(CC(C)C)C1c1cccs1 (centres unmarked) [MMV000648]
EC50 ([1]; source StJude): 3.16 µM | inhibition of growth at 5 µM [2]: 97%

COc1ccccc1C(=O)ON=C(N)Cc1cccc2ccccc12 [MMV666686]
EC50 [1, 4]: 0.352 µM | EC50 [2]: 0.814 µM | inhibition of growth at 5 µM [2]: 97%

CC(C)(C)c1ccc(O)c(CNC2CCCCC2)c1 [MMV665785]
EC50 ([1]; source GNF (GNF-Pf id)): 0.251 µM | EC50 ([1]; source GSK (TCMDC id)): 0.264 µM | EC50 [2]: 0.161 µM | inhibition of growth at 5 µM [2]: 96%

CN(C)c1ccc(C=Cc2nc(=O)c3ccccc3o2)cc1 [MMV006309]
EC50 ([1]; source GSK (TCMDC id)): 0.0446 µM | EC50 [2]: 0.0515 µM | inhibition of growth at 5 µM [2]: 96%

COC(=O)c1ccc(C2C3=C(O)CC(c4ccc(F)cc4)CC3=Nc3ccccc3N2C(=O)c2ccccc2)cc1 (centres unmarked) [MMV011438]
EC50 [1, 4]: 0.332 µM | EC50 [2]: 0.327 µM | inhibition of growth at 5 µM [2]: 98%

Cn1c(=O)c2cc(C(=O)NCCCN3CCCCCC3)sc2c2ccccc21 [MMV019313]
EC50 ([1]; source GSK): 0.689 µM | EC50 [2]: 0.669 µM | inhibition of growth at 5 µM [2]: 97%

CCOc1ccc(C=Cc2nc(=O)c3ccccc3o2)cc1 [MMV665940]
EC50 ([1]; source StJude): 0.188 µM | EC50 [2]: 0.56 µM | inhibition of growth at 5 µM [2]: 95%

Cc1cc(C)c2nc(N3CCC(C(=O)NCCCN4CCC(N5CCCCC5)CC4)CC3)sc2c1 [MMV019780]
EC50 ([1]; source GSK): 0.838 µM | EC50 [2]: 0.697 µM | inhibition of growth at 5 µM [2]: 98%

O=C(c1ccccc1F)N(Cc1ccc(Cl)cc1)c1ccccn1 [MMV665899]
EC50 ([1]; source GSK): 1.02 µM | inhibition of growth at 5 µM [2]: 59%
